Marks after values point to notes of the source that are not given here.

Data set [1] concerns chloasma model of guinea pig. Briefly: Chloasma model of guinea pig: tyrosine, MDA content and SOD activity of skin tissue. It counts as in vivo. The following applies: 0.25% cream on the skin once a day, 30 days. The source says:
1.1.4 Preparation method of treatment cream: The excipient matrix components include methyl silicone oil (15%), stearic acid (6%), white vaseline (5%), liquid paraffin (5%), octadecanol (5%), glycerin (20%), alkyl aryl polyglycol ether (1%), fatty alcohol polyoxyethylene ether (1%), […] (1%), ethyl paraben (0.1%), distilled water (about 31-55%), and are mixed with appropriate amount of CLY series compounds to form 0.25% mixed emulsion. The cream matrix used in this embodiment refers to the matrix components after the active ingredients are removed from the cream.
According to the body weight, they were randomly divided into the model control group (applied cream matrix), blank control group (applied cream matrix), CLY-1 treatment group (applied 0.25% CLY-1 cream on the skin), CLY-2 treatment group (0.25% CLY-2 cream on the skin), CLY-3 treatment group (0.25% CLY-3 cream on the skin), CLY-4 treatment group (0.25% CLY-4 cream on the skin), CLY-5 treatment group (0.25% CLY-5 cream on the skin) CLY-8 treatment group (0.25% CLY-8 cream on the skin), CLY-11 treatment group (0.25% CLY-11 cream on the skin), CLY-19 treatment group (0.25% CLY-19 cream on the skin), CLY-36 treatment group (0.25% CLY-36 cream on the skin), CLY-39 treatment group (0.25% CLY-39 cream on the skin), positive treatment group (0.25% arbutin cream on the skin), 6 in each group. In addition to the blank control group, all guinea pigs in the other groups were injected with 20 mg/ml progesterone injection (7.5 mg/kg) into the muscle at the root of the hind leg, once a day, for 30 consecutive days to establish the chloasma model. […] After modeling, the guinea pigs in the model control group, blank control group, each CLY series treatment group, and positive treatment group were treated with corresponding cream on the back for intervention, once a day, for 30 consecutive days.
Took one piece of skin tissue from each guinea pig, separately. Washed it with precooled normal saline, removed subcutaneous fat and other connective tissue, and then wiped it dry. Each piece of skin tissue was cut to 0.5 g. Then put it into five small tubes containing 2.0 ml of precooled normal saline. The high-speed dispersion machine homogenizes at a speed of […], lasted for 10 seconds, repeated once, centrifuged at a speed of 3500 r/m for 15 minutes, and took the supernatant. Tyrosine was determined by HPLC, MDA was determined by the thiobarbituric acid method, SOD was determined by the xanthine oxidase method, and tyrosine, MDA content, and SOD activity were determined according to the instructions of the kit.
SPSS16.0 software was used for statistics. The measurement data were expressed by mean±standard deviation (x±s). The comparison between multiple groups was performed by one-way ANOVA, and the comparison between groups was performed by t-test. P<0.05 was statistically significant.

Another data set relates to rat hair loss model. Briefly: Rat hair loss (androgenic alopecia) model: hair length. As to conditions: for 15-day hair length / 30-day hair length / 45-day hair length / 60-day hair length: rat AGA model; for adverse reactions: rat hair loss model, external use and system application, 60 days. It counts as in vivo, Wistar rats. The source says:
(1) Compound CLY-1, CLY-2, CLY-3, CLY-4, CLY-5, CLY-8, CLY-11, CLY-19, CLY-36, CLY-39 tincture preparation method: 75% ethanol was mixed with appropriate amount of above compounds to prepare a tincture of different concentrations.
(2) Positive treatment drug: 5% minoxidil tincture (trade name: Mandi, Zhejiang Wanma Pharmaceutical Co., Ltd.).
Wistar rats were, according to weights, randomly divided into the negative control group (75% ethanol for external use), model group (75% ethanol for external use), positive control group (external 5% minoxidil tincture), CLY-1 external treatment group (external 5% CLY-1 tincture), CLY-2 external treatment group (external 5% CLY-2 tincture), CLY-3 external treatment group (external 5% CLY-3 tincture), CLY-4 external treatment group (external 5% CLY-4 tincture), and CLY-5 external treatment group (external 5% CLY-5 tincture) according to their body weight CLY-8 external treatment group (external 5% CLY-8 tincture), CLY-11 external treatment group (external 5% CLY-11 tincture), CLY-19 external treatment group (external 5% CLY-19 tincture), CLY-36 external treatment group (external 5% CLY-36 tincture), CLY-39 external treatment group (external 5% CLY-39 tincture), CLY-1 intravenous injection group (2 mg/kg·d), CLY-3 intravenous injection group (2 mg/kg·d), CLY-4 intravenous injection group (2 mg/kg·d) CLY-5 intravenous injection group (2 mg/kg·d), CLY-8 intravenous injection group (2 mg/kg·d), CLY-11 intravenous injection group (2 mg/kg·d), CLY-19 intravenous injection group (2 mg/kg·d), CLY-36 intravenous injection group (2 mg/kg·d), and CLY-39 intravenous injection group (2 mg/kg·d), with 10 rats in each group. Before the experiment, an area of 4 cm×5 cm was selected on each rat on the back of the neck to remove hair as the observation area. In addition to the negative control group, rats were subcutaneously injected with testosterone propionate injection [5 ml/(kg·d)] once a day for 60 days to establish the androgenic alopecia (AGA) model. […] At the same time, the drug was applied to the observation area on the back of the rats in the corresponding drug group at the rate of 2 mL/(one time), twice a day, at an interval of 8 hours; Intravenous administration once a day. The negative control group and the model control group were smeared with 75% ethanol solution, 2 mL/(one rat per time), twice a day, for 60 days.
Took 10 hairs from the observation area on the back of each rat every 15 days after administration, and measured the hair length with a vernier caliper. After 60 days of administration, the skin of the experimental observation area was taken for routine tissue dehydration, paraffin embedding, HE staining, and light microscopy to observe the histopathological changes of the rat skin hair follicles and sebaceous glands. Semi-quantitative analysis was performed for each group. The grading criteria are as follows: the normal structure of dermal tissue cells, subcutaneous hair follicles, and sebaceous glands is marked as […]: no hyperplasia of dermal tissue is found, the lesions of hair follicles and sebaceous glands are limited, and no inflammation is found under the skin is marked as “+”: no obvious hyperplasia of dermal tissue is found, and the follicles are obviously cystic. No obvious hyperplasia of sebaceous glands is found, and no inflammation is found under the skin is marked as “+”: the dermal tissue has segmental hyperplasia, which is not obvious, A small number of hair follicles have cystic changes, and the sebaceous glands have mild hyperplasia and hypertrophy. There is no obvious inflammation under the skin, which is marked as “++”: the dermal tissue cells of the skin have different degrees of segmental hyperplasia, and some hair follicles have cystic changes, showing uneven size of hair follicles, and no cells around. The sebaceous glands have hyperplasia, and the nuclei in the proliferative glands are few. […]

The mark [2] stands for this setting: external 5% tincture twice a day.
Where [3] appears, read: intravenous injection 2 mg/kg·d.

`CN1CCC[C@@H](N(C(=O)c2ccc(-n3nnc4cccnc43)cc2)c2ncccc2Cl)C1` [CLY-1, (R)-4-(3H-[1,2,3]triazolo[4,5-b]pyridin-3-yl)-N-(3-chloropyridin-2-yl)-N-(1-methylpiperidin-3-yl)benzamide]: in data set [1], the MDA came out at 11.32 ± 1.15 nmol/mL, the SOD was determined as 103.65 ± 9.63 NU/ml and the tyrosine came to 0.45 ± 0.07 µg. Also, in the data set with rat hair loss model (setting [2]), the 15-day hair length is recorded as 8.3* mm, the 30-day hair length is reported as 9.3* mm, the 45-day hair length is recorded as 14.2* mm and the 60-day hair length was 17.6* mm. For the same compound, in the data set with rat hair loss model (setting [3]), the 15-day hair length is 8.7* mm, the 30-day hair length is on record as 9.6* mm, the 45-day hair length is given as 14.6* mm and the 60-day hair length was 17.9* mm. In the data set on rat hair loss model, the adverse reactions entry was “no obvious adverse reactions”.

As to `CCN1CCC[C@@H](N(C(=O)c2ccc(-n3nnc4cccnc43)cc2)c2ncccc2Cl)C1` [CLY-2, (R)-4-(3H-[1,2,3]triazolo[4,5-b]pyridin-3-yl)-N-(3-chloropyridin-2-yl)-N-(1-ethylpiperidin-3-yl)benzamide], in data set [1], the MDA was 10.86 ± 1.19 nmol/mL, the SOD was found to be 105.23 ± 9.82 NU/ml and the tyrosine was 0.43 ± 0.06 µg. For the same compound, in the data set with rat hair loss model (setting [2]), the 15-day hair length is 9.1* mm, the 30-day hair length is given as 10.1* mm, the 45-day hair length is given as 15.3* mm and the 60-day hair length was 18.9* mm. In addition, in the data set with rat hair loss model (setting [3]), the 15-day hair length is 9.2* mm, the 30-day hair length is 10.3* mm, the 45-day hair length was 15.6* mm and the 60-day hair length is listed as 19.1* mm. In the data set with rat hair loss model, the adverse reactions result is recorded as “no obvious adverse reactions”.

Take `CNC1CCCC(N(C(=O)c2ccc(-n3nnc4cccnc43)cc2)c2ncccc2Cl)C1` (stereo not shown) [CLY-3]: in data set [1], the MDA was determined as 11.57 ± 1.18 nmol/mL, the SOD turned out to be 97.45 ± 9.23 NU/ml and the tyrosine worked out at 0.51 ± 0.07 µg. Besides, in the data set with rat hair loss model (setting [2]), the 15-day hair length was 7.5* mm, the 30-day hair length is reported as 8.6* mm, the 45-day hair length is listed as 12.45* mm and the 60-day hair length is 16.3* mm. Further, in the data set on rat hair loss model (setting [3]), the 15-day hair length is reported as 7.3* mm, the 30-day hair length is 8.9* mm, the 45-day hair length is reported as 13.9* mm and the 60-day hair length is recorded as 16.8* mm. Besides, the adverse reactions result with rat hair loss model is given as “no obvious adverse reactions”.

In data set [1], `O=C(c1ccc(-n2nnc3cccnc32)cc1)N(c1ncccc1Cl)C1CCCC(O)C1` (stereo not shown) [CLY-4] came in with an MDA of 11.62 ± 1.15 nmol/mL, an SOD of 95.12 ± 8.65 NU/ml and a tyrosine of 0.53 ± 0.06 µg. Also, in the data set with rat hair loss model (setting [2]), the 15-day hair length is 7.2* mm, the 30-day hair length is reported as 8.3* mm, the 45-day hair length was 12.26* mm and the 60-day hair length is given as 16.1* mm. In addition, in the data set on rat hair loss model (setting [3]), the 15-day hair length is on record as 7.1* mm, the 30-day hair length was 8.6* mm, the 45-day hair length was 13.5* mm and the 60-day hair length is on record as 16.3* mm. For the same compound, the adverse reactions result in the data set on rat hair loss model is “no obvious adverse reactions”.

In data set [1], `COC1CCCC(N(C(=O)c2ccc(-n3nnc4cccnc43)cc2)c2ncccc2Cl)C1` (stereo not shown) [CLY-5] registered an MDA of 10.65 ± 1.14 nmol/mL, an SOD of 105.89 ± 9.86 NU/ml and a tyrosine of 0.43 ± 0.05 µg. Besides, in the data set with rat hair loss model (setting [2]), the 15-day hair length was 9.2* mm, the 30-day hair length was 10.2* mm, the 45-day hair length was 15.5* mm and the 60-day hair length is on record as 18.9* mm. Further, in the data set with rat hair loss model (setting [3]), the 15-day hair length was 7.8* mm, the 30-day hair length was 9.3* mm, the 45-day hair length is recorded as 13.7* mm and the 60-day hair length is given as 16.4* mm. The adverse reactions entry in the data set with rat hair loss model was “no obvious adverse reactions”.

In data set [1], `O=C(c1ccc(-n2nnc3cccnc32)cc1)N(c1ncccc1Cl)[C@@H]1CCNC1` [CLY-8, (R)-4-(3H-[1,2,3]triazolo[4,5-b]pyridin-3-yl)-N-(3-chloropyridin-2-yl)-N-(pyrrolidin-3-yl)benzamide] returned an MDA of 10.59 ± 1.12 nmol/mL, an SOD of 105.68 ± 9.75 NU/ml and a tyrosine of 0.43 ± 0.03 µg. Further, in the data set with rat hair loss model (setting [2]), the 15-day hair length was 9.3* mm, the 30-day hair length was 10.3* mm, the 45-day hair length is given as 15.7* mm and the 60-day hair length is recorded as 19.2* mm. Besides, in the data set with rat hair loss model (setting [3]), the 15-day hair length is listed as 7.3* mm, the 30-day hair length was 9.5* mm, the 45-day hair length is 13.8* mm and the 60-day hair length was 17.8* mm. For the same compound, the adverse reactions entry in the data set with rat hair loss model is recorded as “no obvious adverse reactions”.

Turning to `Nc1cc(N2CCCCC2)nc(N)[n+]1[O-]` [Positive control group, minoxidil, reference compound], in the data set with rat hair loss model (setting [2]), the 15-day hair length is recorded as 7.6* mm, the 30-day hair length is 8.5* mm, the 45-day hair length is 13.1* mm and the 60-day hair length is given as 16.2* mm.

Source of the values: patent US20240300945A1, “CLY SERIES COMPOUND, PREPARATION METHOD THEREFOR AND USE THEREOF IN PREPARATION OF DRUGS” (NANJING WELLBEST PHARMACEUTICAL CO., LTD, priority 2021, published 2024).
